Legend:
mouse sEH = target: T1, mouse sEH (Mus musculus, UniProt P34914); test: mouse sEH inhibition assay; format: biochemical
T1 sequence (P34914 1-554): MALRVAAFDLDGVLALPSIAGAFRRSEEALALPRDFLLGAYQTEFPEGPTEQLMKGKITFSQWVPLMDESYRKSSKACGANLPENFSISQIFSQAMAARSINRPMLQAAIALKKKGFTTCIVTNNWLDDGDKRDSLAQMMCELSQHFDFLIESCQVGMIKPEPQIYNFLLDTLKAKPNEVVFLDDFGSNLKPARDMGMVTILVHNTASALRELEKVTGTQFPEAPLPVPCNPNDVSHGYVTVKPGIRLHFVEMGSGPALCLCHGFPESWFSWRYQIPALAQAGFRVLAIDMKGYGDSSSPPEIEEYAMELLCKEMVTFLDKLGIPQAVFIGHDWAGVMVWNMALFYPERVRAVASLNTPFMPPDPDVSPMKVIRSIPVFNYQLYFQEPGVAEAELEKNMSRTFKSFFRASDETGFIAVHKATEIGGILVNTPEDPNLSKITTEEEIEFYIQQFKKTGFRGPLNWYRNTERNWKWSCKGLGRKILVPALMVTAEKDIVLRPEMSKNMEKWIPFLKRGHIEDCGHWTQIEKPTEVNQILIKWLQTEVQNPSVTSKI

[1] = plasma stability assay, human plasma; format: in vitro ADME; conditions: pH 7.4
[2] = plasma stability assay, rat plasma; format: in vitro ADME; conditions: 37 °C, pH 7.4, 0-120 min
[3] = system: formalin-induced orofacial pain in female rats; conditions: doses ranging from 0.5 to 5 mg/kg; cited from earlier work

SMILES: Cc1ccc(-c2csc(-c3ccc(NC(=O)C4CCN(S(=O)(=O)c5ccccc5Cl)CC4)cc3)n2)cc1 [SW-17, 1-((2-chlorophenyl)sulfonyl)-N-(4-(4-(p-tolyl)thiazol-2-yl)phenyl)piperidine-4-carboxamide]
- activity in mouse sEH inhibition assay (in words) (mouse sEH): weak inhibitor
- half-life at 5 μM [1]: 410 min
- Half-life ([2]; 5 μM): 31.1 min
- half-life at 5 μM ([2]; rat, plasma, pH 7.4, Half-life): ~30 min

SMILES: CNS(=O)(=O)Cc1ccc2[nH]cc(CCN(C)C)c2c1 [sumatriptan]
- effect on formalin-induced orofacial pain [3]: inhibit formalin-induced orofacial pain

Source: paper PMC11379592 (BBA Advances, 2024)
